Reference: PMC6161601 (Journal of Enzyme Inhibition and Medicinal Chemistry, 2018)
Where “and” joins values, the source holds several entries; their conditions need not be identical. Equal values may be shown once. Entries after “also recorded” stand apart in the source; their conditions may differ. Read-outs that look alike come from different tables or passages of the source.

How the values were obtained:
[1] = molecular target: T1, human erythrocyte acetylcholinesterase (AChE) (Homo sapiens, UniProt P22303); experiment: biochemical
T1 construct: from tissue; host or cells: haemolysed erythrocytes of healthy human donors
Method: (§1) Blood samples were obtained from healthy donors from the Voievodal Specialized Hospital in Łódź, Poland (Wojewódzki Specjalistyczny Szpital im. Dr W. Biegańskiego w Łodzi). The blood was collected into vacuum tubes containing sodium citrate. Erythrocytes were separated from plasma by centrifugation (3000 × g, 10 min, 20 °C) with a Micro 22 R centrifuge (Hettich ZENTRIFUGEN, Tuttlingen, Germany) and washed three times with 0.9% saline. Afterwards, red cells were haemolysed by freezing and stored at a temperature of –30 °C; before each experiment, they were restored at 37° C for 15 min and used to determine AChE activity. […] The studies on the biological material were approved by the Bioethics Committee of the Medical University of Lodz (RNN/27/18/KE).
(§2) The activity of both cholinesterases (AChE and BuChE) were conducted using a spectrophotometric method developed by Ellman with previously described modifications[25]^,[30]. […] 400-fold diluted solution of haemolysed erythrocytes or diluted plasma (200 times) was incubated for 15 min (37° C) with DTNB and tested compound at an appropriate concentration, and the reaction was started by addition of substrate (ATC or BTC). The final volume of a sample was 500 µL.
(§3) AChE Selectivity Index (SI) was calculated with the aid of the following formula: SI = IC50 of BChE/IC50 of AChE. In turn BuChE SI was defined as IC50 of AChE/IC50 of BChE. Linear regression (Hanes–Woolf plots) were used to estimate the maximal velocity (Vmax) and the Michaelis constant (Km).

[2] = molecular target: T2, human plasma butyrylcholinesterase (BuChE) (Homo sapiens, UniProt P06276); experiment: biochemical
T2 construct: Plasma for determination of BuChE activity was obtained by centrifuging the blood; from tissue; host or cells: plasma of healthy human donors
Method: as §1, §2, §3

[3] = molecular target: T1, human erythrocyte acetylcholinesterase (AChE); experiment: Kinetic parameters and type of AChE inhibition (Hanes–Woolf); assay type: biochemical; conditions: for Vmax(i) AChE: mean ± SD
Method: (§4) The absorbance was recorded at λ = 436 nm using a CECIL 2021 spectrophotometer (CECIL Instruments Limited, Cambridge, UK) with a thermostatic water flow (temperature 37° C).
as §3
(§5) To establish the type of inhibition, additional experiments were conducted with various concentrations of substrates (ATC, BTC), and the kinetic parameters of the enzymatic reactions were obtained using Hanes–Woolf equation, which is a graphical representation of enzyme kinetics in which the ratio of the initial substrate concentration [S] to the reaction velocity v is plotted against [S]. […]

[4] = molecular target: T2, human plasma butyrylcholinesterase (BuChE); experiment: Kinetic parameters and type of BuChE inhibition (Hanes–Woolf); assay type: biochemical; conditions: for Vmax(i) BuChE: mean ± SD
Method: as §4, §3, §5

BuChE = molecular target: T3, BuChE (Homo sapiens, UniProt P06276); experiment: BuChE inhibition with excess of substrate (BTC); assay type: biochemical; conditions: for inhibition at 375 µM: compound at 375 µmol/L
T3 construct: Plasma for determination of BuChE activity was obtained by centrifuging the blood; from tissue; host or cells: plasma of healthy human donors

Aβ42 peptide = molecular target: T4, Aβ42 peptide (Homo sapiens, UniProt P05067); experiment: Beta-amyloid (Aβ 1–42) aggregation, SensoLyte ThT kit; assay type: biochemical
T4 construct: Beta-amyloid (Aβ 1–42) aggregation studies were conducted using SensoLyte ThT Aβ42 Aggregation kit; purchased AnaSpec, Inc, Fremont, CA
Method: Beta-amyloid (Aβ 1–42) aggregation studies were conducted using SensoLyte ThT Aβ42 Aggregation kit (AnaSpec, Inc, Fremont, CA). Aβ42 peptide was dissolved in cold (4 °C) assay buffer and left to hydrate for a few minutes. The solution was spined at 10,000 rpm for 5 min at 4 °C to centrifuge out any precipitated material. […] The final volume of the test samples was 100 µL. Simultaneously, the positive control and negative control containing morin at the final concentration of 100 µmol/L were established. […] The measurements of fluorescence intensity expressed as relative fluorescence units (RFU) were taken for 90 min with 5 min intervals. The fluorescence intensity measured for positive control equals 100% of Aβ aggregation and was used for estimation of inhibition properties of tested biguanides.
Statistical analysis of data obtained in Aβ aggregation assay was conducted with a commercially available package (GraphPad Prism 5, La Jolla, CA). The results were expressed as the mean ± standard deviation (SD) of measurements conducted in triplicates or quadruplicates. One or two-way ANOVA and subsequent post hoc tests were used for intergroup comparisons. The results were considered significant at p values lower than 0.05.

[5] = Intracellular uptake in in vitro cellular model (unpublished data); assay type: in vitro ADME; conditions: depending on the cell line
[6] = tested on: human umbilical vein endothelial cells (HUVECs); experiment: HUVEC viability and integrity, real-time electrical impedance system (unpublished data); assay type: cell-based
Method: At lower concentrations of substrate, BuChE activity is related to Michaelis–Menten kinetics and its enzymatic activity is based on the formation of an enzyme–substrate complex [ES]. At higher substrate levels (> 1 mM) BuChE presents greater activity related to the formation of a substrate-activated complex [SES][33]. […] This fact is of vital importance when studying BuChE inhibitors as in vivo the concentration of ACh in the synaptic cleft is estimated to be about 5 mM^33, which imply that substrate activated form of BuChE is present in the synaptic cleft.

AChE = molecular target: T5, AChE (Homo sapiens, UniProt P22303); assay type: biochemical
T5 construct: 400-fold diluted solution of haemolysed erythrocytes or diluted plasma (200 times) was incubated; from tissue; host or cells: haemolysed erythrocytes of healthy human donors

erythrocytes = conditions: 6–1500 μmol/L; cited from earlier work
[7] = molecular target: T2, human plasma butyrylcholinesterase (BuChE); conditions: published previously; cited from earlier work

T1 sequence (P22303 other isoform, or with tags, fused parts or gaps): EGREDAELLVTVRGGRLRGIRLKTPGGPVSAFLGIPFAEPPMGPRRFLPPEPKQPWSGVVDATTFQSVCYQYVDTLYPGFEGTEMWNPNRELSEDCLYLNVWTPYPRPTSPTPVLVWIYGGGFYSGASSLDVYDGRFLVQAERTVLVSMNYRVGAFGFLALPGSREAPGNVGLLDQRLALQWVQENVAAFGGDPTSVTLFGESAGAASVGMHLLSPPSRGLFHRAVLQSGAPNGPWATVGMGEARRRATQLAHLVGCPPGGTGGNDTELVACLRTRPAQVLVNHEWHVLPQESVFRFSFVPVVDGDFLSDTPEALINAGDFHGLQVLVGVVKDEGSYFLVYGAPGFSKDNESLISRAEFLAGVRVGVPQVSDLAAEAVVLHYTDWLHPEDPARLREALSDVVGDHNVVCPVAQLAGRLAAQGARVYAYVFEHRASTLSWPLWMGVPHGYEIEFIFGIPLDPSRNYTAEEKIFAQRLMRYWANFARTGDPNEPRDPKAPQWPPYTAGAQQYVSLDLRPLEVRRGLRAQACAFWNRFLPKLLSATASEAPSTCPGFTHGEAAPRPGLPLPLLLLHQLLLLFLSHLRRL
T4 sequence (P05067 672-713): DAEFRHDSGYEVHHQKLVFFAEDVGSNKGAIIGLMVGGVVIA
T3 sequence (P06276 29-602): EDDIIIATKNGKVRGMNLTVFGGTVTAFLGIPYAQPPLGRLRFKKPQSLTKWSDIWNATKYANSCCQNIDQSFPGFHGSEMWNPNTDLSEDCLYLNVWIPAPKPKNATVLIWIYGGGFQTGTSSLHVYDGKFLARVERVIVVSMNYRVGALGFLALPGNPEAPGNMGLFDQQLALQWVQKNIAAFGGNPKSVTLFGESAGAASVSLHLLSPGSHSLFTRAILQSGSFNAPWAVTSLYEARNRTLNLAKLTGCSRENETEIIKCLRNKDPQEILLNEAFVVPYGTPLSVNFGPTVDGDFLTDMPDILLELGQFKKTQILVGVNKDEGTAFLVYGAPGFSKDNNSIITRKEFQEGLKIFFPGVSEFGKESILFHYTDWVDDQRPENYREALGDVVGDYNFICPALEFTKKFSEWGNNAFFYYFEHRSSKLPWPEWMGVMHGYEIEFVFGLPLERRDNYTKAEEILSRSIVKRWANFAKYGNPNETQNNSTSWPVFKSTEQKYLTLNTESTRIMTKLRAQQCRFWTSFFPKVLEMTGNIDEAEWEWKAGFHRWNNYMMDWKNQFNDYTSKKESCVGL
T2 sequence (P06276 29-602): as above
T5 sequence (P22303 other isoform, or with tags, fused parts or gaps): as the sequence (P22303 other isoform, or with tags, fused parts or gaps) above

With `CN(C)C(=N)N=C(N)NS(=O)(=O)c1ccc(C(F)(F)F)cc1[N+](=O)[O-]` [Compound 5] as the molecule, how does the “SI AChE” value ([1]; IC50 BChE/IC50 AChE) read?
Its value is 3.23.

What about the inhibition at 150 µM ([1]; compound at 150.0 µmol/L) of the same molecule?
The inhibition at 150 µM was 35 ± 7.18%.

What about the IC50 ([1]; human erythrocyte AChE, mean ± SD of three independent experiments) of the same molecule?
The IC50 was 212 ± 48.3 µM.

And the “SI BuChE” value ([2]; IC50(AChE)/IC50(BChE))?
Its value is 0.31.

And the IC50 ([2]; human plasma BuChE, mean ± SD of three independent experiments)?
Its IC50 is 686 ± 86.4 µM.

What about the “I: type of inhibition, AChE” value [3] of the same molecule?
The value was “M (M: mixed type)”.

What about the “type of AChE inhibition” value [3] of the same molecule?
Its value is “mixed-type; also recorded: mixed inhibition; also recorded: mixed way”.

And the “vmax AChE, mean ± SD” value ([3]; B: inhibitor at 1/3 of IC50)?
The value was 175.32 ± 33.25 mA/min.

What about the “Vmax(i) AChE” value ([3]; B: inhibitor at 1/3 of IC50) of the same molecule?
Its value is 0.175 ± 0.033 A/min.

And the “vmax AChE, mean ± SD” value ([3]; C: inhibitor at IC50)?
Its value is 146.12 ± 40.50 mA/min.

And the “Vmax(i) AChE” value ([3]; C: inhibitor at IC50)?
The value was 0.146 ± 0.040 A/min.

What about the “vmax AChE, individual experiments B1–B3” value ([3]; inhibitor at 1/3 of IC50) of the same molecule?
The value was 183.000 mA/min and 204.073 mA/min and 138.914 mA/min.

What about the “vmax AChE, individual experiments C1–C3” value ([3]; inhibitor at IC50) of the same molecule?
The value was 173.750 mA/min and 165.000 mA/min and 99.631 mA/min.

What about the “I: type of inhibition, BuChE” value [4] of the same molecule?
The value was “M (M: mixed type)”.

And the “type of BuChE inhibition” value [4]?
The value was “mixed inhibition; also recorded: mixed manner; also recorded: Mixed type”.

And the “vmax BuChE, mean ± SD” value ([4]; B: inhibitor at 1/3 of IC50)?
Its value is 242.44 ± 12.47 mA/min.

And the “Vmax(i) BuChE” value ([4]; B: inhibitor at 1/3 of IC50)?
The value was 0.242 ± 0.012 A/min.

And the “vmax BuChE, mean ± SD” value ([4]; C: inhibitor at IC50)?
The value was 202.78 ± 2.42 mA/min.

What about the “Vmax(i) BuChE” value ([4]; C: inhibitor at IC50) of the same molecule?
The value was 0.202 ± 0.002 A/min.

What about the “vmax BuChE, individual experiments B1–B3” value ([4]; inhibitor at 1/3 of IC50) of the same molecule?
The value was 243.730 mA/min and 229.384 mA/min and 254.233 mA/min.

And the “vmax BuChE, individual experiments C1–C3” value ([4]; inhibitor at IC50)?
Its value is 204.771 mA/min and 200.088 mA/min and 203.508 mA/min.

And the “BuChE inhibition, maximal” value (BuChE; BTC 2.5 μmol/mL, various compound concentrations (Figure 8B))?
The value was “up to 31.89 ± 6.22%”.

What about the inhibition at 375 µM (BuChE; BTC 0.75 mmol/L) of the same molecule?
The inhibition at 375 µM was 27.5 ± 8.61%.

What about the inhibition at 375 µM (BuChE; BTC 2.5 mmol/L) of the same molecule?
The inhibition at 375 µM was at most 15.6%.

What about the “activity vs morin 100 µmol/L” value (Aβ42 peptide; 100 µmol/L, two-way ANOVA) of the same molecule?
The value was “significantly lower in comparison with morin”.

And the “inhibitory property vs morin 100 µmol/L” value (Aβ42 peptide; 200 µmol/L, two-way ANOVA, p > 0.05)?
Its value is “comparable with those of morin”.

And the inhibition at 200 µM (Aβ42 peptide; 200 µmol/L, vs control)?
Its inhibition at 200 µM is about 20%.

And the “Aβ aggregation decreased up to” value (Aβ42 peptide; 100 and 200 µmol/L, after 60 min of reaction initiation)?
Its value is about 80%.

What about the “intracellular uptake relative to metformin” value [5] of the same molecule?
The value was 70–80 fold.

And the “decrease in HUVEC adhesion and viability” value ([6]; 300 μmol/L, 12–72 h of incubation)?
Its value is about 20%.

And the “effect on HUVEC viability” value ([6]; 6–100 μmol/L)?
Its value is “did not affect cell viability”.

And the “type of AChE inhibition” value (AChE; at 1/2 IC50 for AChE)?
The value was “mixed-type”.

And the “Vmax AChE” value (AChE; each at 1/2 IC50 for AChE: metformin 1175, donepezil 0.0125, compound 5 106.0 µmol/L, alone or in mixture)?
Its value is 0.206 ± 0.008 A/min.

What about the “erythrocytes membrane disintegration” value (erythrocytes) of the same molecule?
Its value is “does not contribute to the erythrocytes membrane disintegration”.

Which results are given for `[H]/N=C(/N)N/C(=N/[H])NCCc1ccccc1` [Phenformin, phenformin, reference compound]?
inhibition at 150 µM ([2]; at 150 µmol/L): 44.7 ± 1.23%; IC50 [7]: 259 ± 31 µM
